Experiment [1] concerns phenylbenzoquinone-induced writhing in mice. In words: Writhing assay (phenylbenzoquinone). It counts as in vivo. The note with it: 30 min before phenylbenzoquinone i.p.; for Writhing Mouse Oral: screening dose 10 mg/kg p.o. (intragastric); for Writhing Mouse Subc.: screening dose 10 mg/kg s.c. On the procedure:
Writhing assay. Male Charles River albino mice (CD-1/HAM/1LR) weighing between 20 and 30 grams were used. Thirty minutes after subcutaneous or intragastric administration of the test compound (0.1 ml/10 gram body weight), 0.025(w/v) phenylbenzoquinone was injected intraperitoneally (0.1 ml/10 gram body weight). Five minutes later, each mouse was placed in a large glass beaker and the number of writhes that occurred in the subsequent ten minutes is counted. A writhe consisted of dorsoflexion of the back, extension of the hindlimbs, and strong contraction of the abdominal musculature. The test compound was considered to have produced analgesia in a mouse if the number of writhes elicited by phenylbenzoquinone was equal to or less than one-half the median number of writhes recorded for the saline-treated group that day. The results were expressed as the number of mice (out of a possible ten) in which the test compound produced analgesia. […] If the initial test dose of 10 mg/kg inhibited writhing in greater than 6 of IO mice, the effect of additional doses was evaluated and an ED50 value was calculated using a maximum likelihood function.
A general note: In writhing tests, fewer writhes than in controls are read as antinociception.

In experiment [2] the target is opiate receptors isolated from rat brain. It counts as binding. On the procedure:
Opiate Binding Assay. The test compounds were evaluated for their ability to displace the binding of ^3 H-Naloxone to opiate receptors isolated from rat brain. Male rats [Crl CD(SD)BR] obtained from Charles River Laboratories (Portage, Mich.) were sacrificed by cervical dislocation. A purified homogenate of receptor membranes was prepared from the brains according to the method described by Chang and Cuatrecasas. (K.-J. Chang and P. Cuatrecasas. Multiple Opiate Receptors: Enkephalins And Morphine Bind To Receptors Of Different Specificity. J. Biol. Chem. 254, 2610-2618 (1979).) The brains were homogenized in 10 volumes of 0.32M sucrose and centrifuged twice at 6,000xg for 15 minutes. Following centrifugation of the supernatants at 40,000xg for 30 minutes, the pellets were resuspended in 5mM Tris-HCl and then centrifuged at 6,000xg. The supernatant was centrifuged at 40,000xg. This resuspended pellet (5mM Tris HCl) was centrifuged twice. The final pellet was resuspended in 2 volumes of 50 mM tris HCl (pH 7.4). The homogenate was assayed for protein content according to the method of Itzhaki and Gill. (R. F. Itzhaki and D. M. Gill. A Micro-Biuret Method for Estimating Proteins. Anal. Biochem. 9, 401-410 (1964).
The binding of the test compounds to the receptor membrane preparation was measured using a modification of the method of Pert and Snyder. (C. B. Pert and S. H. Snyder. Properties of Opiate-Receptor Binding in Rat Brain. Proc. Natl. Acad. Sci. 70, 2243-2247 (1973). The receptor assay was run using final concentrations of 1 nM ^3 -H-Naloxone and 0.5 mg/ml of homogenate protein.
Levorphanol (1×10^-5 M) was used as the displacer for non-specific binding. Final concentration of the test compounds was 10^-5 M. The assay was run in 0.05M tris HCl (pH 7.4). Total assay volume was 1.0 ml.
Samples were incubated at 25° C. for 60 min., filtered over Whatman GF/C glass fiber filters and rinsed twice with 4 ml washes of ice-cold buffer. The filters were air-dried at 50° C. for 30 minutes. After drying, 10 ml of PCS was added to the vial and the radioactivity determined using a tracor analytic Mark III liquid scintillation counter with a counting efficiency of 48.
The IC50 value, the concentration of the test compounds which inhibited ^3 H-Naloxone specific binding to the opiate receptor by 50, were obtained from log-logit plots of concentration-response curves.

In experiment [3] the test system is rat. Particulars: injected directly into the brain of the rat; Belluzi et al., Nature 260, 625 (1976); cited from earlier work.
The mark [4] stands for this setting: inhibition of 1 nM 3H-Naloxone specific binding, rat brain membranes, screening concentration 10^-5 M.

Like-named read-outs stand apart in the source and are kept apart here.

A word on the IC50: it is the point on the concentration scale where inhibition reaches its midpoint. “0-ethyl-2,6-dimethyl-DL-tyrosyl-N-(3-phenylpropyl)-D-alaninamide, acetate (salt), hydrochloride (4:3:5; [Example 5]”: in experiment [1], the “Writhing Mouse Oral” value is “Inactive” and the “Writhing Mouse Subc.” value is reported as “Active”. Also, the IC50 in experiment [2] (read-out: Opiate Binding IC50) worked out at 130 nM.
“2,6,dichlorotyrosyl-N-(3-phenylpropyl)-D-alaninamide, monohydrochloride [Example 23]”: in experiment [1], the “Writhing Mouse Oral” value is listed as “Active” and the “Writhing Mouse Subc.” value is “Active”. The IC50 in experiment [2] (setting [4]) stood at 7.6 nM.
As to `Cc1cc(O)cc(C)c1CC(N)C(=O)N(C)[C@H](C)C(=O)NCCCc1ccccc1.Cl` (mixture of isomers) [Example 15, 2,6-dimethyl-DL-tyrosyl-Nα-methyl-N-(3-phenylpropyl)-D-alaninamide, monohydrochloride], in experiment [1], the “Writhing Mouse Oral” value is recorded as “Active” and the “Writhing Mouse Subc.” value is recorded as “Active”. The compound also returned an IC50 in experiment [2] (setting [4]) of 0.6 nM.
On to `Cc1cc(O)cc(C)c1CC(N)C(=O)N[C@H](C)C(=O)N(C)CCCc1ccccc1.Cl` (mixture of isomers) [Example 16, 2,6-dimethyl-DL-tyrosyl-N-methyl-N-(3-phenylpropyl)-D-alaninamide, monohydrochloride], for which, in experiment [1], the “Writhing Mouse Oral” value is “Inactive” and the “Writhing Mouse Subc.” value is “Active”. In addition, in experiment [2] (setting [4]), the IC50 came to 300 nM.
For `COc1cc(C)c(CC(N)C(=O)N[C@H](C)C(=O)NCCCc2ccccc2)c(C)c1.Cl` (mixture of isomers) [Example 2, 0,2,6-trimethyl-DL-tyrosyl-N-(3-phenylpropyl)-D-alaninamide, monohydrochloride], in that order: “Active”, “Active” and 290 nM.
With `CNC(Cc1c(C)cc(OCc2ccccc2)cc1C)C(=O)N[C@H](C)C(=O)NCCCc1ccccc1.Cl` (mixture of isomers) [Example 12, N,2,6-trimethyl-0-(phenylmethyl)-DL-tyrosyl-N-(3-phenylpropyl)-D-alaninamide, monohydrochloride], in experiment [1], the “Writhing Mouse Oral” value is “Active” and the “Writhing Mouse Subc.” value is recorded as “Active”. For the same compound, in experiment [2] (setting [4]), the IC50 came to 3600 nM.
For `COc1cc(C)c(C[C@H](N)C(=O)N[C@H](C)C(=O)NCCCc2ccccc2)c(C)c1` [Example 3, 0,2,6-trimethyltyrosyl-N-(3-phenylpropyl)-D-alaninamide], in experiment [1], the “Writhing Mouse Oral” value is reported as “Active” and the “Writhing Mouse Subc.” value is given as “Active”. The IC50 in experiment [2] (setting [4]) worked out at 420 nM.
As to `COc1cc(C)c(C[C@H](N)C(=O)N[C@H](C)C(=O)NCCCc2ccccc2)c(C)c1` [Example 4, 0,2,6-trimethyltyrosyl-N-(3-phenylpropyl)-D-alaninamide], in experiment [1], the “Writhing Mouse Oral” value is on record as “Active” and the “Writhing Mouse Subc.” value is “Active”. This compound yielded an IC50 in experiment [2] (setting [4]) of 75 nM.
With `Cc1cc(OC(C)C)cc(C)c1C[C@H](N)C(=O)N[C@H](C)C(=O)NCCCc1ccccc1.Cc1cc(OC(C)C)cc(C)c1C[C@H](N)C(=O)N[C@H](C)C(=O)NCCCc1ccccc1.Cc1cc(OC(C)C)cc(C)c1C[C@H](N)C(=O)N[C@H](C)C(=O)NCCCc1ccccc1.Cc1cc(OC(C)C)cc(C)c1C[C@H](N)C(=O)N[C@H](C)C(=O)NCCCc1ccccc1.Cl.Cl.Cl.Cl.Cl` [Example 6, 2,6,dimethyl-0-(1-methylethyl)tyrosyl-N-(3-phenylpropyl)-D-alaninamide, hydrochloride (4:5)], in experiment [1], the “Writhing Mouse Oral” value is reported as “Inactive” and the “Writhing Mouse Subc.” value was “Inactive”. The IC50 in experiment [2] (read-out: Opiate Binding IC50) is 47 nM.
For `COc1ccc(C[C@H](N)C(=O)N[C@H](C)C(=O)NCCCc2ccccc2)cc1.Cl` [Example 9, 0-methyl-L-tyrosyl-N-(3-phenylpropyl)-D-alaninamide, monohydrochloride], in experiment [1], the “Writhing Mouse Oral” value is “Active” and the “Writhing Mouse Subc.” value was “Active”. In addition, the “Opiate Binding IC50” value in experiment [2] is given as “Inactive”.
Consider `CN[C@@H](Cc1c(C)cc(OC)cc1C)C(=O)N[C@H](C)C(=O)NCCCc1ccccc1.Cl` [Example 11, N,0,2,6,-tetramethyltyrosyl-N-(3-phenylpropyl)-D-alaninamide, monohydrochloride], for which, in experiment [1], the “Writhing Mouse Oral” value is listed as “Active” and the “Writhing Mouse Subc.” value is “Active”. Further, the IC50 in experiment [2] (setting [4]) came to 610 nM.
For `CN[C@@H](Cc1c(C)cc(O)cc1C)C(=O)N[C@H](C)C(=O)NCCCc1ccccc1.Cl` [Example 13, N,2,6-trimethyltyrosyl-N-(3-phenylpropyl)-D-alaninamide, monohydrochloride], in experiment [1], the “Writhing Mouse Oral” value was “Inactive” and the “Writhing Mouse Subc.” value was “Active”. The IC50 in experiment [2] (inhibition of 1 nM 3H-Naloxone specific binding, rat brain membranes, screening concentration 10^-5 M, monohydrochloride) came to 1800 nM.
`CN[C@@H](Cc1c(C)cc(O)cc1C)C(=O)N[C@H](C)C(=O)NCCCc1ccccc1.CN[C@@H](Cc1c(C)cc(O)cc1C)C(=O)N[C@H](C)C(=O)NCCCc1ccccc1.CN[C@@H](Cc1c(C)cc(O)cc1C)C(=O)N[C@H](C)C(=O)NCCCc1ccccc1.CN[C@@H](Cc1c(C)cc(O)cc1C)C(=O)N[C@H](C)C(=O)NCCCc1ccccc1.Cl.Cl.Cl.Cl.Cl` [Example 14, N,2,6-trimethyltyrosyl-N-(3-phenylpropyl)-D-alaninamide, hydrochloride (4:5)]: in experiment [1], the “Writhing Mouse Oral” value is listed as “Inactive” and the “Writhing Mouse Subc.” value is recorded as “Active”. The same compound returned an IC50 in experiment [2] (setting [4]) of 140 nM.
For the compound `Cc1cc(C)c(C[C@H](N)C(=O)N[C@H](C)C(=O)NCCCc2ccccc2)c(C)c1.Cl` [Example 25, 2,4,6-trimethylphenylalanyl-N-(3-phenylpropyl)-D-alaninamide, monohydrochloride], in experiment [1], the “Writhing Mouse Oral” value is recorded as “Inactive” and the “Writhing Mouse Subc.” value is given as “Active”. In experiment [2] (setting [4]), this compound showed an IC50 of 2000 nM.
For `Cc1cc(OCc2ccccc2)cc(C)c1C[C@H](N)C(=O)N[C@H](C)C(=O)NCCCc1ccccc1.Cl` [Example 27, 2,6-dimethyl-O-(phenylmethyl)-L-tyrosyl-N-(3-phenylpropyl)-D-alaninamide, monohydrochloride], in experiment [1], the “Writhing Mouse Oral” value is recorded as “Active” and the “Writhing Mouse Subc.” value is listed as “Active”. In experiment [2] (setting [4]), this compound displayed an IC50 of 360 nM.
For the compound `Cc1cc(OCc2ccccc2)cc(C)c1C[C@@H](N)C(=O)N[C@H](C)C(=O)NCCCc1ccccc1.Cl` [Example 28, 2,6-dimethyl-O-(phenylmethyl)-D-tyrosyl-N-(3-phenylpropyl)-D-alaninamide, hydrochloride], in experiment [1], the “Writhing Mouse Oral” value is on record as “Active” and the “Writhing Mouse Subc.” value is listed as “Active”. For the same compound, the IC50 in experiment [2] (setting [4]) came to 22 nM.
With methionine enkephalin, in experiment [3], the analgesic activity result is “weak, fleeting analgesic activity”.

The values above are taken from US4760180A, “N-terminally substituted dipeptide amides” (priority 1986, dated 1988).
